In patent US11198731B2 (Exelixis, Inc., priority 2017, dated 2021):

Columns and labels:
P-glycoprotein = P-glycoprotein (Homo sapiens, UniProt P08183); experiment: In vitro P-glycoprotein substrate and inhibition data; type: in vitro ADME
CYP1A1 = experiment: In vitro induction of cytochrome P450 enzymes; type: in vitro ADME; settings: high cabozantinib concentrations (30 μM)
[1] = system: CYP2D6, CYP2C8, CYP2C19, CYP2B6, or CYP1A2; settings: human
[2] = system: previously-untreated advanced RCC of intermediate- or poor-risk; settings: cited from earlier work
[3] = system: relapsed or refractory metastatic UC; settings: cited from earlier work
cytochrome P450 enzymes = experiment: In vitro induction of cytochrome P450 enzymes; type: in vitro ADME
[4] = system: advanced CRPC with bone metastases; settings: cited from earlier work
[5] = Nonclinical GLP-compliant toxicology studies; type: in vivo
Excerpt: The development of any new or progressive, unexplained neurological symptoms should be assessed for underlying causes.

[6] = system: NSCLC without EGFR genetic alterations; settings: cited from earlier work
human plasma proteins = experiment: Plasma protein binding; type: in vitro ADME
advanced NSCLC = settings: cited from earlier work
[7] = system: metastatic triple-negative breast cancer; settings: in vivo; cited from earlier work
CYP3A4 [8] = molecular target: T1, CYP3A4 (Homo sapiens, UniProt P08684); experiment: In vitro CYP substrate studies; type: in vitro ADME
Target sequence in this assay (P08684 whole entry, species assumed): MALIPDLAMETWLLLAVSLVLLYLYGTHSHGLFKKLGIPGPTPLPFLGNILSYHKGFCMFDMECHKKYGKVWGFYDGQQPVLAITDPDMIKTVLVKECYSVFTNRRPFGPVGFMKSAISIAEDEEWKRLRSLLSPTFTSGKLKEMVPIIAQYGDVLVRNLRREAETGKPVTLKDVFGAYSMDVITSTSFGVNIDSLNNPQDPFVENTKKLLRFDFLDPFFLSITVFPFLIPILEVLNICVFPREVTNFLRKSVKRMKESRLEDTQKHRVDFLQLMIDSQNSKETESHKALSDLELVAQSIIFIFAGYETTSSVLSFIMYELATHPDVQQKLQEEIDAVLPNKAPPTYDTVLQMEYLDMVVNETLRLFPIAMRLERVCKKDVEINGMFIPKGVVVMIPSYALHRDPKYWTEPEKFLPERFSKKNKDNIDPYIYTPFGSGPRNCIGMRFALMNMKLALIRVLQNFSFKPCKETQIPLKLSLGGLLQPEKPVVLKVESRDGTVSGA

[9] = system: murine colon carcinoma cell line (MC38-CEA); settings: in vitro; cited from earlier work
[10] = Time to steady state exposure of cabozantinib; type: in vivo, human; settings: following first dose
Excerpt: Events that generally have an early onset include hypocalcemia, hypokalemia, thrombocytopenia, hypertension, PPE, abdominal pain, mucosal inflammation, constipation, diarrhea, and vomiting. Adverse events should be managed with supportive car at the earliest signs of toxicity. Dose reductions and treatment interruptions should be considered. Dose reductions are recommended for events that, if persistent, could become serious or intolerable (Table 6-3).

invasive prostate cancer = settings: through a neutrophil mediated anticancer innate immune response; cited from earlier work
CYP3A4 [11] = molecular target: T1, CYP3A4; experiment: Clinical pharmacology study XL184-007 with the strong CYP3A4 inhibitor ketoconazole; type: in vivo; set-up: endogenous in cells; host or cells: healthy volunteers, in vivo; settings: concurrent ketoconazole; single dose of cabozantinib in healthy volunteers
Target sequence in this assay (P08684 whole entry): as the sequence (P08684 whole entry, species assumed) above

[12] = Food effect on cabozantinib exposure; settings: in vivo
[13] = system: subjects with medullary thyroid cancer (MTC); experiment: Placebo-controlled study of cabozantinib effect on QTc interval; type: in vivo, human
Excerpt: A concentration-QTc relationship could not be definitively established. Changes in cardiac wave form morphology or new rhythms were not observed.

[14] = system: advanced RET-rearranged NSCLC; settings: cited from earlier work
CYP2C9 = CYP2C9 (Homo sapiens, UniProt P11712); experiment: In vitro CYP substrate studies; type: in vitro ADME
CYP2C9, sequence (P11712 whole entry, species assumed): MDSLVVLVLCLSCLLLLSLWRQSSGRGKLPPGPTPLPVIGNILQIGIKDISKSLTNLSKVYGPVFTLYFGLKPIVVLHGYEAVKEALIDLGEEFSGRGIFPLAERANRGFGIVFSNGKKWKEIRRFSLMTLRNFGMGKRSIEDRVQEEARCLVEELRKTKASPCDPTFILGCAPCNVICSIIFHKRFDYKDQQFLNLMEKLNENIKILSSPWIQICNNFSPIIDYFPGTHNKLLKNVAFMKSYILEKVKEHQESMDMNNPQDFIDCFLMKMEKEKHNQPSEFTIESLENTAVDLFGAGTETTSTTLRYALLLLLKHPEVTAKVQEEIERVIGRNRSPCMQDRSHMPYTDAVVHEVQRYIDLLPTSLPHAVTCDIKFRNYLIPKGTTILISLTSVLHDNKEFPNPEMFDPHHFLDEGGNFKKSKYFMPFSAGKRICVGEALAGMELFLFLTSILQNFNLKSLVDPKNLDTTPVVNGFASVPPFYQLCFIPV

[15] = Effect of proton pump inhibitor esomeprazole on cabozantinib plasma PK; type: in vivo, human; settings: healthy volunteers
[16] = system: advanced RCC after prior VEGFR-TKI; settings: cited from earlier work
CYP3A4 [17] = molecular target: T1, CYP3A4; experiment: Clinical pharmacology study XL184-006 with the strong CYP3A4 inducer rifampin; type: in vivo; set-up: endogenous in cells; host or cells: healthy volunteers, in vivo; settings: concurrent rifampin; single dose of cabozantinib in healthy volunteers
Target sequence in this assay (P08684 whole entry): as the sequence (P08684 whole entry, species assumed) above

MC38-CEA tumor = settings: mouse, in vivo; cited from earlier work
[18] = Cohort 1, 42 evaluable subjects

P-glycoprotein, sequence (P08183 whole entry): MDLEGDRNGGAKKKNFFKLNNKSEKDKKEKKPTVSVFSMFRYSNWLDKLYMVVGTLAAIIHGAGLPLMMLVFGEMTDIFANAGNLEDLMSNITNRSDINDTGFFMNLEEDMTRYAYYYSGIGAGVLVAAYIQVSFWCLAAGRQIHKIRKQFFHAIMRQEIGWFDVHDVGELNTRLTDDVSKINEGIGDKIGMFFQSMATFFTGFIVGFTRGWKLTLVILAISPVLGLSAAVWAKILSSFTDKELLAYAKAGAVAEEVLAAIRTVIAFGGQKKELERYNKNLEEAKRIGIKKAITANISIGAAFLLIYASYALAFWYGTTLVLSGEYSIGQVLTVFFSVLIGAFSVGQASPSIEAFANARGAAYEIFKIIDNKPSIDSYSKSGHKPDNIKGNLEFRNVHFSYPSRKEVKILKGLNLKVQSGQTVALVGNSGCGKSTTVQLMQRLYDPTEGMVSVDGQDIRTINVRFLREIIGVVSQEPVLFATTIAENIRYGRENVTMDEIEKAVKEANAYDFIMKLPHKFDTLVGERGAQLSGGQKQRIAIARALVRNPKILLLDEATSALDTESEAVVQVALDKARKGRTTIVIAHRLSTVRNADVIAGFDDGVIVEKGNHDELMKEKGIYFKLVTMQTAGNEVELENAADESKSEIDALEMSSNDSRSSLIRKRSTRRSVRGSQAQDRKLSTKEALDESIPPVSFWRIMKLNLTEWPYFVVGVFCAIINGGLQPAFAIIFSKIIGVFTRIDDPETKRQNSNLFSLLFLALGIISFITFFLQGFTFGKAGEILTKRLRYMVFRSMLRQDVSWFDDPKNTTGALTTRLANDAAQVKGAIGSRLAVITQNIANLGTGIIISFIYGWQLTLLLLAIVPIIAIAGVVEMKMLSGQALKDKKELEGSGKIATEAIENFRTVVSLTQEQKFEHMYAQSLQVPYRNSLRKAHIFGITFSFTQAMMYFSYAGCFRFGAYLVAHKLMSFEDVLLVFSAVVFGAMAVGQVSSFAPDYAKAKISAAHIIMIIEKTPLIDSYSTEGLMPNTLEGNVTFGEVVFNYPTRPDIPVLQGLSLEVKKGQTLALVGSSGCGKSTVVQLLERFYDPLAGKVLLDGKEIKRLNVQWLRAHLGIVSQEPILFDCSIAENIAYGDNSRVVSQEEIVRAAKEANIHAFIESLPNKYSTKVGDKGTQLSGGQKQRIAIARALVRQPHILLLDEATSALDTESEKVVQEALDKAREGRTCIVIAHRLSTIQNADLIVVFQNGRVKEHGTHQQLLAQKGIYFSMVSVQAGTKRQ

COc1cc2nccc(Oc3ccc(NC(=O)C4(C(=O)Nc5ccc(F)cc5)CC4)cc3)c2cc1OC [cabozantinib, N-(4-{[6,7-bis(methyloxy)quinolin-4-yl]oxy}phenyl)-N′-(4-fluorophenyl)cyclopropane-1,1-dicarboxamide]
Inhibition of P-glycoprotein transport activity (P-glycoprotein): potential to inhibit | P-glycoprotein substrate status (P-glycoprotein): unlikely to be a substrate | Induction of CYP1A1 (CYP1A1): possible induction | CYP2D6, CYP2C8, CYP2C19, CYP2B6, CYP1A2 substrate status [1]: not a CYP2D6, CYP2C8, CYP2C19, CYP2B6, or CYP1A2 substrate | Discontinued study treatment due to an AE ([2]; 16 subjects in each arm): 20% | Adverse events of ≥Grade 3 regardless of causality ([2]; % of subjects): 68% | Reduction of the rate of disease progression or death ([2]; compared with sunitinib): 34% | Median OS ([2]; in vivo): 26.6 months | Median PFS per IRC ([2]; in vivo): 8.6 months | Median PFS per investigator ([2]; in vivo): 8.2 months | ≥Grade 3 AE: PPE ([2]; in vivo): 8% | ≥Grade 3 AE: diarrhea ([2]; in vivo): 10% | ≥Grade 3 AE: fatigue ([2]; in vivo): 6% | ≥Grade 3 AE: hematological events ([2]; in vivo): 2% | ≥Grade 3 AE: hypertension ([2]; in vivo): 28% | Number of PRs [3, 18]: 7 | Number of complete responses (CR) [3, 18]: 1 | ORR [3, 18]: 19.1% | Median OS ([3]; Cohort 1): 8.0 months | Median PFS ([3]; Cohort 1): 3.7 months | Cabozantinib-related Grade 4 AE: hypomagnesemia ([3]; all cohorts (n=67)): 3% | Cabozantinib-related Grade 4 AE: lipase increased ([3]; all cohorts (n=67)): 1% | Grade 3 AE related to cabozantinib: hypertension ([3]; all cohorts (n=67)): 7% | Grade 3 AE related to cabozantinib: hypophosphatemia ([3]; all cohorts (n=67)): 6% | Grade 3 AE related to cabozantinib: fatigue ([3]; all cohorts (n=67), most frequent (5% incidence)): 9% | Immunosuppressive Treg lymphocytes following treatment ([3]; in vivo): reductions | Induction of cytochrome P450 enzymes (cytochrome P450 enzymes): unlikely to Induce | Proportion of subjects with a bone scan response (BSR) per IRC ([4]; at Week 12): 42% | Median PFS per investigator ([4]; exploratory endpoint): 5.6 months | Median duration of BSR ([4]; in vivo): 5.8 months | Median duration of OS (Kaplan-Meier) ([4]; in vivo): 11.0 months | Risk of adverse neurological effects [5]: minimal risk of adverse neurological effects | Estimated median OS ([6]; in vivo): 9.2 months | ORR ([6]; in vivo): 11% | PFS ([6]; second or third line treatment): 4.3 months | Grade 3 or 4 AE: diarrhea ([6]; single-agent cabozantinib): 8% | Grade 3 or 4 AE: fatigue ([6]; single-agent cabozantinib): 15% | Grade 3 or 4 AE: hypertension ([6]; single-agent cabozantinib): 25% | Grade 3 or 4 AE: oral mucositis ([6]; single-agent cabozantinib): 10% | Grade 3 or 4 AE: thromboembolic event ([6]; single-agent cabozantinib): 8% | Bound to human plasma proteins (human plasma proteins): 99.7% | ORR (advanced NSCLC; 60 subjects, single agent): 10% | Stable disease as best response (advanced NSCLC; % of subjects): 48.3% | Objective response rate (ORR) (advanced NSCLC; heavily pre-pretreated unselected NSCLC, early phase clinical trials): approximately 10% | Median PFS (advanced NSCLC; in vivo): 4.0 months | CD14+ monocytes [7]: persistent decrease | Fraction of circulating CD3+ T lymphocytes [7]: persistent increase | CYP3A4 substrate status (CYP3A4 [8]): CYP3A4 substrate | Sensitivity of tumor cells to T-cell-mediated killing [9]: greater sensitivity | Tumor-cell expression of major histocompatibility complex (MHC) class 1 antigen [9]: increased tumor-cell expression | Time to steady state exposure [10]: approximately 2 weeks | Effect on invasive prostate cancer (invasive prostate cancer): rapid elimination of invasive prostate cancer | Increase in cabozantinib exposure (AUC values) (CYP3A4 [11]): 38% | Increase of exposure levels by food [12]: 57% | Subjects with a QTcF >500 ms ([13]; cabozantinib 140 mg qd): No cabozantinib-treated subjects | Mean increase in QTcF ([13]; cabozantinib 140 mg qd orally, 4 weeks after initiating treatment): 10 to 15 ms | Events of torsades de pointes ([13]; larger safety database (approximately 5000 subjects exposed)): no events of torsades de pointes | Overall response rate (ORR) ([14]; RET-rearranged NSCLC): 28% | Grade 3 treatment-related AE: decreased platelet count ([14]; in vivo): 8% | Grade 3 treatment-related AE: hypophosphataemia ([14]; in vivo): 8% | Grade 3 treatment-related AE: increased ALT ([14]; in vivo): 8% | Grade 3 treatment-related AE: increased AST ([14]; in vivo): 8% | Grade 3 treatment-related AE: lipase elevation ([14]; in vivo): 15% | Median OS ([14]; in vivo): 9.9 months | Median PFS ([14]; in vivo): 5.5 months | Treatment-related deaths ([14]; in vivo): No treatment-related deaths | CYP2C9 substrate status (CYP2C9): weak substrate | Effect of esomeprazole on cabozantinib plasma PK [15]: no clinically-relevant effect | Dose reductions from 60 mg to 40 mg ([16]; % of subjects): 60% | Further dose reductions from 40 mg to 20 mg ([16]; % of subjects): 20% | Treatment discontinuations due to AEs ([16]; incidence in each arm): 10% | Reduction in cabozantinib exposure (AUC values) (CYP3A4 [17]): approximately 77% | Peripheral CD8+ T-cell counts (MC38-CEA tumor): increased | Regulatory T-cells (Tregs) and myeloid-derived suppressor cells (MDSCs) (MC38-CEA tumor): decreased | Treg suppressor activity (MC38-CEA tumor): decreased
